Entries after “also recorded” stand apart in the source; their conditions may differ.
How the values were obtained:
C-cell calcium receptor = molecular target: T1, C-cell calcium receptor (Rattus norvegicus, UniProt P48442); format: cell-based
T1 construct: Neoplastic C-cells derived from a rat medullary thyroid carcinoma (rMTC 6-23); host or cells: rMTC 6-23 cells
T1 sequence (P48442 20-1079): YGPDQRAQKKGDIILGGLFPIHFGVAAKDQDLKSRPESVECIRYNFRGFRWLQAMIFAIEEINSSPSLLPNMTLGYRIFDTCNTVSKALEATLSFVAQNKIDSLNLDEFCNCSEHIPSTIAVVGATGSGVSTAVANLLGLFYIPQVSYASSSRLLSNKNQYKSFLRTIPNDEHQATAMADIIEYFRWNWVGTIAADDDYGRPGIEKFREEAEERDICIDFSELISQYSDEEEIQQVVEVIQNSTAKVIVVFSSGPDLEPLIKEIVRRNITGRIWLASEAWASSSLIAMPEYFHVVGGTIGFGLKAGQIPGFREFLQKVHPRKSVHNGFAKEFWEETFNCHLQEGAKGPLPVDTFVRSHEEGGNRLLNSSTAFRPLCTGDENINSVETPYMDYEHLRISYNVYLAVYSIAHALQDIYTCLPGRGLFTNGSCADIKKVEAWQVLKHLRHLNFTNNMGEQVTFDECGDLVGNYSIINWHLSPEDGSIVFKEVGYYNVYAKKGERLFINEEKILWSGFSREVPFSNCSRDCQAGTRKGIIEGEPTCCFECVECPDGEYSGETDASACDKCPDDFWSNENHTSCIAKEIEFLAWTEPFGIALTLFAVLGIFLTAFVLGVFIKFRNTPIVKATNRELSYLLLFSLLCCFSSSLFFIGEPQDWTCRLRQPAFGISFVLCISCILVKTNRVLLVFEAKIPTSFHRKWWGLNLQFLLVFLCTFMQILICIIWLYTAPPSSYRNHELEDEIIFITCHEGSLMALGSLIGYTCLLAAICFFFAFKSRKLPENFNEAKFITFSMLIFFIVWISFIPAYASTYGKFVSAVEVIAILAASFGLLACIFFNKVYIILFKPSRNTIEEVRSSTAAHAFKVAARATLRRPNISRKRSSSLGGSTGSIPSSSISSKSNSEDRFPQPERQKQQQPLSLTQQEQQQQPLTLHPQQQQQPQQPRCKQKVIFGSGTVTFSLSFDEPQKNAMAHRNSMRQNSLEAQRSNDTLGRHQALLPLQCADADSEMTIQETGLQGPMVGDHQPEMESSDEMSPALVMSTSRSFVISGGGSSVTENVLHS
Description: To assess the effects of molecular polycations on C-cells, a neoplastic cell line, derived from a rat medullary thyroid carcinoma (rMTC 6-23 cells) was used.

[1] = molecular target: T2, bovine parathyroid cell calcium receptor (Bos taurus, UniProt P35384); assay: Cl- current in Xenopus oocytes expressing BoPCaR 1; format: cell-based; conditions: for effect on Cl- current: BoPCaR 1-injected oocytes; for effect in control oocytes: uninjected, water or rat liver mRNA oocytes
T2 construct: expressed in transfected cells; host or cells: Xenopus laevis oocytes injected with BoPCaR 1 cRNA
T2 sequence (P35384 20-1085): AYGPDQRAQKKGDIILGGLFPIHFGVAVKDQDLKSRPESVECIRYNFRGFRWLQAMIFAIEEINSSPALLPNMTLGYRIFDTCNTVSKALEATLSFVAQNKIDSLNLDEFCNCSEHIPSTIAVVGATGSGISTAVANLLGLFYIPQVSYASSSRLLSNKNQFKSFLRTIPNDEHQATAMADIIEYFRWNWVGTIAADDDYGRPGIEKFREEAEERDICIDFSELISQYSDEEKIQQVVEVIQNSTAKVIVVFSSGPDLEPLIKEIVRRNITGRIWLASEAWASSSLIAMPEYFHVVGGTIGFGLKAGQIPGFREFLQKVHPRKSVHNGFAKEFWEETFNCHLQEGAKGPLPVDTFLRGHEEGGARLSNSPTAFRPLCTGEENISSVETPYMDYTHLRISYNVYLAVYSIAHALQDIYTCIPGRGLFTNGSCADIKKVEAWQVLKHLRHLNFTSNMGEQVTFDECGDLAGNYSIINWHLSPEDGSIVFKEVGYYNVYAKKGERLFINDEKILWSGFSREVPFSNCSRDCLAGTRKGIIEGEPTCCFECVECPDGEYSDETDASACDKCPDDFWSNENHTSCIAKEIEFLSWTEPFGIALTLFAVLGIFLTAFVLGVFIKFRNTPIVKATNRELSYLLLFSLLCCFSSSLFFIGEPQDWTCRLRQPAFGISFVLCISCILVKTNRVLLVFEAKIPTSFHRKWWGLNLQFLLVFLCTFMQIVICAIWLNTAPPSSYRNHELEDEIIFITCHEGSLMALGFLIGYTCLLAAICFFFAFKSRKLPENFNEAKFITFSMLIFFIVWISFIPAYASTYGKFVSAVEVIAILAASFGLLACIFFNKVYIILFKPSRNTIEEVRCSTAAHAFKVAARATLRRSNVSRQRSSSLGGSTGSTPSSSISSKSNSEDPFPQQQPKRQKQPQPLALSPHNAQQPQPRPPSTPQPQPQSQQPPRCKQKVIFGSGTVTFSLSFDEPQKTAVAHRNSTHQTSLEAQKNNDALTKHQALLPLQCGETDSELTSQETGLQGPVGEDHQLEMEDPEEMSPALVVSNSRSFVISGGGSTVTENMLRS
Description: Several pharmacological and biochemical criteria were used to identify this clone as encoding a bona fide bovine parathyroid Ca^2+ receptor. […] These responses increased markedly over a period of one to four days after injection of the eggs with cRNA prepared from the BoPCaR 1 cDNA. Furthermore, the ranges of the concentrations of the two cations eliciting this response were very similar to those shown previously to act on bovine parathyroid cells in vitro.
Xenopus oocytes were injected with BoPCaR 1, the 5.3 Kb cDNA encoding a bovine parathyroid cell calcium receptor as described in Example 25. After two to three days, Cl^- currents were examined in the oocytes using a two-electrode voltage clamp.
Xenopus oocytes were injected with BoPCaR 1 as described in Example 25. After two to three days, Cl^- currents were examined in the oocytes using two electrode voltage clamp.

Structure (SMILES) | effect on [Ca2+]i in C-cells (C-cell calcium receptor) | effect on Cl- current [1] | effect on Cl- current in absence of extracellular Ca2+ [1] | effect in control oocytes [1] | effect on extracellular Ca2+ concentration-response curve [1] | effective concentration range, Cl- current ([1]; BoPCaR 1 oocytes)
NCCCNCCCCNCCCNCCCNCCCNC(=O)Cc1c[nH]c2ccccc12 [NPS 019] | mobilization of intracellular Ca^2+ | caused oscillatory increases in the Cl^- | persisted in the absence of extracellular Ca^2+ | Neither NPS 017 nor NPS 019 elicited changes in Cl^- | – | –
COc1cccc([C@@H](C)NCCCc2ccccc2Cl)c1 [NPS R-568, (R)-(+)-N-[3-(2-chlorophenyl)propyl]-α-methyl-3-methoxybenzylamine] | – | caused increases in the Cl^- | abolished in the absence of extracellular Ca^2+ | failed to evoke responses | potentiated the responses to submaximal concentrations of extracellular Ca^2+; also recorded: shift the extracellular Ca^2+ concentration-response curve to the left | –
NC[C@@H]1O[C@H](O[C@H]2[C@@H](O)[C@H](O[C@@H]3[C@@H](O)[C@H](N)C[C@H](N)[C@H]3O[C@H]3O[C@H](CN)[C@@H](O)[C@H](O)[C@H]3N)O[C@@H]2CO)[C@H](N)[C@@H](O)[C@@H]1O [Neomycin] | fails to affect basal or evoked increases in C-cells; also recorded: without effect on basal [Ca^2+ ]i; also recorded: fail to affect the calcium receptors on C-cells or osteoclasts | large inward currents | persist despite removal of extracellular Ca^2+ | – | – | 20 to 100 µM
